Earlier results, collected in US20220130517A1, “PS[…] VARIOUS MENTAL HEALTH DISORDERS” (Ketamine SLC, priority 2020, published 2022).

System: mental health disorder
Details: IV drip over 40 minutes, 0.5 mg/kg per session, six sessions over twelve days; some patients

**Q.** Which “relief from the symptoms of mental health disorder” value does the source give for `CNC1(c2ccccc2Cl)CCCCC1=O` (stereo not shown) [ketamine] here?
**A.** some patients experience relief from the symptoms of their mental health disorder for a period of time including weeks and/or months
